Measurements as given in patent US20230136600A1, “Method and device for screening antigen epitope polypeptide” (priority 2020, published 2023).

Tested on: Balb/c mice
Assay: Polypeptide chip-based vaccine immunogenicity scoring system
Assay type: in vivo
Design: key to A2: whether the 95 percentile of the last sampling is increased compared with the end point: Y = rise; N = no rise
Details: Embodiment III, polypeptide-KLH; for A1: difference between a highest median and a D 0 median (95 percentile) / A2: whether the 95 percentile of the last sampling is increased compared with the end point: Mix1-10; for Total single peptide: A*3 + B*2 + C*1; for A: 95 percentile grouping number score / B: Mouse performance score: total score = 5; for C1: #A timing-sequence response peptide fragment set / C2: #B vaccine specificity peptide fragment set / C3: Intersection of A and B / C4: Percentage of the intersection in set B / C: Timing-sequence response and specificity score: value of the whole mix

Sequence	B1: D 0-D 14 95 percentile rise in the number of mice	B2: D 0-D 21 95 percentile rise in the number of mice	B3: D 14-D 21 95 percentile rise in the number of mice	B4: D 21-D 28 95 percentile rise in the number of mice	A1: difference between a highest median and a D 0 median (95 percentile)	A2: whether the 95 percentile of the last sampling is increased compared with the end point	Total single peptide	A: 95 percentile grouping number score	B: Mouse performance score	C1: #A timing-sequence response peptide fragment set	C2: #B vaccine specificity peptide fragment set	C3: Intersection of A and B	C4: Percentage of the intersection in set B	C: Timing-sequence response and specificity score
QELGKYEQY (SARS-CoV-2) [SEQ ID NO:38]	3	3	2	1	0.10	Y	18.2	4.5	2.1	352	541	1	0.185	0.5
RGGSYTNDKAC (SARS-CoV-2) [SEQ ID NO:2]	3	3	2	0	0.14	N	18.3	4.5	1.9	288	268	4	1.493	1
RLFRKSNLK (SARS-CoV-2) [SEQ ID NO:35]	3	3	2	0	0.10	N	16.3	4	1.9	352	541	1	0.185	0.5
